Reference: US5756423A, “Method of controlling plants by inhibition of farnesyl pyrophosphate synthase” (Zeneca Limited, priority 1997, dated 1998)
Read-outs that look alike come from different tables or passages of the source.

How the values were obtained:
[1] = test system: velvetleaf (Abutilon theophrasti) (ABUTH); assay: post-emergent herbicidal test, velvetleaf; type: in vivo; conditions: Abutilon theophrasti, post-emergence, read-out: ABUTH percent control
Excerpt: (§1) Seeds of several different weed species were planted in sandy loam soil containing only trace organic matter. Propagules were sown in individuals rows using one species per row across the width of an aluminum flat (19.5×9.5×6 cm). The grass weeds planted were green foxtail (Setaria viridis) ("SETVI"), wild oat (Avena fatua) ("AVEFA"), barnyard grass (Enchinochloa crusgalli) ("ECHCG"). Broadleaf weeds utilized were wild mustard (Brassica kaber), also known as Sinapis arvensis, ("SINAR"), velvetleaf (Abutilon theophrasti) ("ABUTH") and morningglory (Ipomoea spp.) ("IPOSS"). Additionally, yellow nutsedge (Cyperus esculentus) ("CYPES"), nutlets were sown. Seeding depths ranged from 1.0 to 1.5 cm and plant densities ranged from 3 to 25 plants per row depending on individual plant species.
(§2) The flats were placed into a greenhouse and watered overhead by sprinkling. The greenhouse environmental systems provided the plants with natural and artificial (via metal halide lamps) lighting to attain 14 hours of light per day. Day and night temperatures were maintained at 29° and 21° C. respectively. The plants were grown for 10 to 12 days (or to the appropriate growth stage) prior to compound application. Grasses were sprayed at a 3 to 4 leaf stage and broadleaves at a 1 to 2 leaf stage. Yellow nutsedge was 5 to 7 cm tall at application.
(§3) Solutions of the test compounds were prepared by weighing out 18.8 and 74.7 mg for 1 and 4 kg/ha applications respectively, of the test compound into a 60 ml wide-mouth bottle, then dissolving the compound in 14.0 ml of deionized water containing 0.5% v/v Tween 20' (polyoxyethylene sorbitan monolaurate emulsifier) as a surfactant. Additional solvents, not exceeding 2 ml (15% of spray volume), were used if needed to dissolve the compound.
(§4) The plants were sprayed inside an enclosed linear spray table with the nozzle set at 30.5 cm (12 inches) above the foliage.
(§5) Treated plants were then returned to a greenhouse and watered daily without wetting the foliage.
(§6) The degree of weed control was evaluated 17-21 days after application and recorded as percentage of control as compared to the growth of the same species in an untreated control flat of the same. Percent control is the total injury to the plants due to all factors including: inhibited emergence, stunting, malformation, chlorosis and other types of plant injury. The control ratings range from 0 to 100 percent, where 0% represents no effect with growth equal to the untreated control and where 100% represents complete kill.

[2] = test system: barnyard grass (Enchinochloa crusgalli) (ECHCG); assay: post-emergent herbicidal test, barnyard grass; type: in vivo; conditions: Echinochloa crus-galli, post-emergence, read-out: ECHCG percent control
Excerpt: as §1, §2, §3, §4, §5, §6

[3] = test system: morningglory (Ipomoea spp.) (IPOSS); assay: post-emergent herbicidal test, morningglory; type: in vivo; conditions: Ipomoea, post-emergence, read-out: IPOSS percent control
Excerpt: as §1, §2, §3, §4, §5, §6

[4] = test system: farnesyl pyrophosphate synthase in daffodil chromoplasts; assay: inhibition of farnesyl pyrophosphate synthase in daffodil chromoplasts (14C-isopentenyl pyrophosphate incorporation); type: biochemical, Narcissus pseudonarcissus; conditions: unit inferred, IC50 values in nM, read-out: IC50
Experimental: The IC50 value may be determined as follows. Daffodil chromoplasts are diluted to a volume of 500 microliters in a buffer containing 0.5M sucrose, 3 mM MgCl2, 1 mM ethylenediaminetetraacetic acid, 20 mM N-tris[hydroxymethyl]methyl-2-aminoethanesulfonic acid, […] N-[2-hydroxyethyl]-piperazine-N'-[2-ethanesulfonic acid], 5 mM L-cysteine, 10 mM sodium fluoride, and 0.1% bovine serum albumin at pH 7.7. The inhibitor to be tested may be dissolved in water other suitable solvent and then added to the reaction mixture. The assay is started by the addition of ^14 C-labeled isopentenyl pyrophosphate (52 Ci/mol) to give a final concentration in the assay of about 3 micromolar. The mixture is incubated at 30° C. with gentle agitation for a period of about 30 min. The reaction may be stopped by the addition of 0.5 mL of saturated NaCl and 2 mL of n-butanol saturated with water. After thorough mixing, the turbid suspensions are centrifuged briefly to separate the layers, and 1 mL of the bright yellow upper butanol layer is added to 10 mL of a suitable scintillation fluid which gives a single phase. The butanol soluble radioactivity is then measured in a scintillation counter.
In addition, the problem of variable quenching differences among different experiments can be essentially eliminated by determining the incorporation of radioactivity relative to controls. Each set of experiments requires two control tubes identical to the test samples except that they contain no inhibitor. One of these is quenched immediately (TO sample) and one is quenched at the end of the normal incubation period (T100 sample).
For each concentration of inhibitor examined the % residual activity is determined from the formula [formula]
Tightly closed daffodil flowers (Narcissus pseudonarcissus) were allowed to open at room temperature. […] Coronae were placed in twice their weight of isolation buffer consisting of 67 mM potassium phosphate, 0.74M sucrose, 5 mM MgCl2, and 0.2% polyvinyl-pyrrolidone at pH 7.6 and were disrupted by 30 seconds of homogenization at high speed in a Waring-type blender. The mixture was filtered through several layers of cheesecloth and 2 layers of 100 micron nylon mesh, and the resulting filtrate was centrifuged at 1000×g for 10 minutes. The pellet was discarded and supernatant was centrifuged at 22,000×g for 20 minutes. […] This solution was centrifuged at 22,000×g for 20 minutes to give orange pellets which were suspended in a buffer of 100 mM tris(hydroxymethyl)aminomethane at pH 7.6 containing 5mM MgCl2 and 2 mM dithiothreitol (1 ml per 10 coronae). This solution was frozen in liquid nitrogen and then stored at -80° C.
Thawed daffodil chromoplasts (100-150 microliters) were diluted to a final volume of 500 microliters in a buffer containing 0.5M sucrose, 3 mM MgCl2, 1 mM ethylenediaminetetraacetic acid, 10 mM N-[2-hydroxyethyl]piperazine-N^1 -[2-ethanesulfonic acid], 5 mM L-cysteine, 10 mM sodium fluoride, and 0.1% bovine serum albumin at pH 7.7. The inhibitor to be tested was dissolved in water or other suitable solvent and was added to the reaction mixture. The assay was started by the addition of ^14 C-labeled isopentenyl pyrophosphate (52 Ci/mol) to give a final concentration in the assay of about 3 micromolar. The mixture was incubated at 30° C. with gentle agitation for a period of about 30 minutes. The reaction was stopped by the addition of 0.5 mL of saturated NaCl and 2 mL of n-butanol saturated with water. After thorough mixing, the turbid suspensions were centrifuged briefly to separate the layers, and 1 mL of the bright yellow upper butanol layer was added to 10 mL of a suitable scintillation fluid which gave a single phase. The butanol soluble radioactivity was then measured in a scintillation counter. Each set of experiments required two control tubes identical to the test samples except that they contain no inhibitor.

[5] = test system: green foxtail (Setaria viridis) (SETVI); assay: post-emergent herbicidal test, green foxtail; type: in vivo; conditions: Setaria viridis, post-emergence, read-out: SETVI percent control
Excerpt: as §1, §2, §3, §4, §5, §6

[6] = test system: yellow nutsedge (Cyperus esculentus) (CYPES); assay: post-emergent herbicidal test, yellow nutsedge; type: in vivo; conditions: Cyperus, post-emergence, read-out: CYPES percent control
Excerpt: as §1, §2, §3, §4, §5, §6

[7] = test system: wild mustard (Brassica kaber), also known as Sinapis arvensis (SINAR); assay: post-emergent herbicidal test, wild mustard; type: in vivo; conditions: Brassica, post-emergence, read-out: SINAR percent control
Excerpt: as §1, §2, §3, §4, §5, §6

[8] = test system: wild oat (Avena fatua) (AVEFA); assay: post-emergent herbicidal test, wild oat; type: in vivo; conditions: Avena fatua, post-emergence, read-out: AVEFA percent control
Excerpt: as §1, §2, §3, §4, §5, §6

[9] = post-emergent, 1.0 kg/ha (*), 17-21 days after application
[10] = post-emergent, 4.0 kg/ha, 17-21 days after application

| SMILES | pest or weed control at 1000 g/ha [1, 9] | pest or weed control at 1000 g/ha [2, 9] | pest or weed control at 1000 g/ha [3, 9] | IC50 ([4]; Table I) | IC50 ([4]; Table II) | pest or weed control at 1000 g/ha [5, 9] | pest or weed control at 1000 g/ha [6, 9] | pest or weed control at 1000 g/ha [7, 9] | pest or weed control at 1000 g/ha [8, 9] | further results |
| --- | --- | --- | --- | --- | --- | --- | --- | --- | --- | --- |
| CCOCCNCC(P(=O)(O)O)P(=O)(O)O [Compound 22] | 5% | 15% | 5% | 1160 nM | 1660 nM | 20% | 0% | 40% | 0% | – |
| CC1CC(C)CN(CC(P(=O)(O)O)P(=O)(O)O)C1 (stereo not drawn) [Compound 35] | 0% | 15% | 30% | 520 nM | 520 nM | 50% | 0% | 25% | 98% | – |
| CC(C)N(C)CC(P(=O)(O)O)P(=O)(O)O [Compound 33] | 50% | 100% | 65% | 178 nM | 178 nM | 95% | 10% | 100% | 100% | – |
| CC(C)(C)NCC(P(=O)(O)O)P(=O)(O)O [Compound 7] | – | – | – | 238 nM | 239 nM | – | – | – | – | pest or weed control at 4000 g/ha [1, 10]: 5%; pest or weed control at 4000 g/ha [2, 10]: 50%; pest or weed control at 4000 g/ha [3, 10]: 60%; pest or weed control at 4000 g/ha [5, 10]: 60%; pest or weed control at 4000 g/ha [6, 10]: 15%; pest or weed control at 4000 g/ha [7, 10]: 100%; pest or weed control at 4000 g/ha [8, 10]: 85% |
| O=P(O)(O)C(CNC1CC1)P(=O)(O)O [Compound 42] | – | – | – | 27 nM | 27 nM | – | – | – | – | pest or weed control at 1000 g/ha [1]: 10%; pest or weed control at 1000 g/ha [2]: 95%; pest or weed control at 1000 g/ha [3]: 90%; pest or weed control at 1000 g/ha [5]: 95%; pest or weed control at 1000 g/ha [6]: 20%; pest or weed control at 1000 g/ha [7]: 100%; pest or weed control at 1000 g/ha [8]: 100% |
| CCCN(CC)CC(P(=O)(O)O)P(=O)(O)O [Compound 38] | 70% | 100% | 90% | 124 nM | 124 nM | 100% | 10% | 100% | 100% | – |
| CC1CCCN(CC(P(=O)(O)O)P(=O)(O)O)C1 (stereo not drawn) [Compound 21] | 0% | 30% | 10% | 385 nM | 385 nM | 50% | 5% | 30% | 50% | – |
| CC(NCC(P(=O)(O)O)P(=O)(O)O)c1ccc(F)cc1 (stereo not drawn) [Compound 44] | 60% | 100% | 10% | 2510 nM | 2510 nM | 100% | 60% | 90% | 90% | – |
| O=P(O)(O)C(O)(C1CCCCN1)P(=O)(O)O (stereo not drawn) [Compound 9] | – | – | – | 209 nM | 209 nM | – | – | – | – | pest or weed control at 4000 g/ha [1, 10]: 30%; pest or weed control at 4000 g/ha [2, 10]: 30%; pest or weed control at 4000 g/ha [3, 10]: 30%; pest or weed control at 4000 g/ha [5, 10]: 100%; pest or weed control at 4000 g/ha [6, 10]: 15%; pest or weed control at 4000 g/ha [7, 10]: 100%; pest or weed control at 4000 g/ha [8, 10]: 60% |
| CNCC(O)(P(=O)(O)O)P(=O)(O)O [Compound 23] | – | – | – | 500000 nM | > 500000 nM | – | – | – | – | pest or weed control at 4000 g/ha [1]: 0%; pest or weed control at 4000 g/ha [2]: 0%; pest or weed control at 4000 g/ha [3]: 0%; pest or weed control at 4000 g/ha [5]: 0%; pest or weed control at 4000 g/ha [6]: 0%; pest or weed control at 4000 g/ha [7]: 0%; pest or weed control at 4000 g/ha [8]: 0% |
| C=CCN(CC=C)CC(P(=O)(O)O)P(=O)(O)O [Compound 37] | 10% | 95% | 15% | 53 nM | 53 nM | 100% | 10% | 98% | 95% | – |
